Assay results taken from US20220257706A1, “EPIDERMAL GROWTH FACTOR RECEPTOR (EGFR) LIGANDS” (NANYANG TECHNOLOGICAL UNIVERSITY, priority 2019, published 2022).
Like-named read-outs stand apart in the source and are kept apart here.

What was measured:
[1] = system: STZ-induced diabetic C57BL/6 mice; assay: Full-thickness splinted excisional wound healing in streptozotocin-induced diabetic C57BL/6 mice; type: in vivo, mouse; conditions: 1 nmol/wound topical, five consecutive days
Description: (§1) Full-thickness 5-mm splinted excisional wounding of mice was performed. Briefly, mice were anesthetized using an intraperitoneal injection of sodium pentobarbital (50 mg kg^−1). The hair of the back was shaved with an electric clipper followed by a depilatory cream. Using a 5-mm-diameter sterile biopsy punch, symmetrical full-thickness excisional wounds were created. Splints were placed around the wound using adhesive glue and secured with four interrupted sutures. The wounds and splints were covered with Tegaderm (3M, US). At indicated days within the 14 days post-injury course, wound diameters were measured. The size of wound was calculated from the average of two diameter measurements along the x and y axis.
Diabetes was induced into C57BL/6 mice by two intraperitoneal injection (80 mg/kg) of STZ at day 1 and 5. Starting from day 8, blood glucose was monitored regularly for two weeks. […] Blood glucose was also monitored at day 14 post-injury to ensure the mice are diabetic.

[2] = Heat stability (100° C., RP-HPLC); type: physicochemical
Description: Samples were collected at various time points (0, 30, 60, and 120 min).

[3] = system: pepsin, trypsin, pronase, human neutrophil elastase; assay: in vitro
Description: (§3) Samples were collected at various time points.
(§4) All collected samples from various stability assays were analyzed by RP-HPLC with a linear gradient of mobile phase A (0.05% TFA/H2O) and mobile phase B (0.05% TFA/ACN) on aeris peptide XB-C18 column (Phenomenex, US). The resulting peaks were collected and identified by MALDI-TOF MS. The results were expressed as percentage of initial concentration using the peak area of the HPLC profile.

[4] = biological target: EGFR (Homo sapiens, UniProt P00533); assay: TR-FRET EGFR ligand binding assay (competitive displacement of biotin-EGF); parameters: purchased PerkinElmer
Description: TR-FRET ratio was measured using a microplate reader in dual emission mode (Excitation: 340 nm, emission: 665 nm and 615 nm) (Cytation 1, US). […] (SEQ ID NO:11) or roseltide rT7 with an amino acid sequence of […] (SEQ ID NO:17) were used as negative control.

[5] = physchem; conditions: buffer
Description: as §3, §4

[6] = system: HaCaT cells; type: cell-based, human; conditions: for mitogenic effect compared with bleogen pB1: 1 μM, crystal violet assay; for EGFR dependence of proliferative/mitogenic effect: co-incubation with EGFR neutralizing antibody (clone LA1)
Description: HaCaT (human keratinocyte), HUVEC-CS (endothelial cells) cells were cultured in Dulbecco's modification of Eagle's medium (DMEM) supplemented with 10% fetal bovine serum and 100 U/mL of penicillin and streptomycin. Normal Human Epidermal Keratinocytes adult purchased from Lifeline® cell technology were cultured in Lifeline® DermaLife K Medium. They were grown in a 5% CO2 humidified incubator at 37° C. HaCaT cells were stably transfected with pGL4.33[luc2P/SRE/Hygro] (Promega) and selected using 250 μg/mL hygromycin. Stable HaCaT cells expressing SRE luciferase reporter were maintained with 250 μg/mL hygromycin.
Cell proliferation was determined using crystal violet staining. […] 3417-Da-peptide aB1 is a CRP isolated from Achyranthes bidentata with the amino acid sequence […] (SEQ ID NO:11). Crystal violet staining was performed as previously described. Briefly, after the incubation period, the wells were fixed with 4% buffered paraformaldehyde for 20 min. The cells were then stained with 0.25% crystal violet in 20% methanol for 15 min. The excess crystal violet stain was rinsed with distilled water for 4-5 times and air-dried. Glacial acetic acid (10%) in Milli-Q water was added to extract the crystal violet stain. The absorbance was then measured at 595 nm using a microplate reader (Tecan Infinite® 200 Pro, Switzerland).

[7] = system: HUVEC-CS cells; assay: Endothelial tube formation assay; type: cell-based; conditions: data not shown
Description: Endothelial tube formation assay was performed using a μ-slide (ibidi, Germany). Briefly, 10 μL of gel matrix (BD Matrigel™ Basement Membrane Matrix) was casted onto each μ-slide well and left to solidify. […] After incubation for 2 h, the wells were photographed using inverted phase-contrast microscope. Images were analyzed for the numbering of branching points using the Wimasis image analysis platform.

[8] = system: HaCaT cells; assay: Cell migration scratch assay; type: cell-based, human; conditions: data not shown
Description: Cell migration was monitored using the scratch assay. Briefly, HaCaT cells were seeded into 2 well silicone inserts with a defined gap of 500 μm (ibidi, Germany). […] After incubation for 8 h, the wells were photographed using inverted phase-contrast microscope. Images were analyzed for the percentage of cell-free area using the Wimasis image analysis platform.

[9] = system: newborn ICR mice; assay: Newborn mice model for incisor eruption; type: in vivo, mouse; conditions: 3 mg/kg subcutaneous, five consecutive days; saline control 153 h
Description: ICR mice were obtained from Vital Rital Laboratories (Beijing, China). […] All experiments were approved and performed in accordance with the institutional guidelines of the Experimental Animal Center of the Chinese Academy of Medical Science (Beijing, China). Subcutaneous injections were made for five consecutive days in the nape of the neck of the newborn mice starting from the day of birth (day 0). […] Incisor eruption was recorded daily by visual inspection. Incisor eruption was defined as the time at which a given tooth first pierced the oral epithelium.

[10] = system: c-fos; assay: Gene expression analysis (qPCR) of c-fos in HaCaT cells; type: cell-based, human; conditions: 2 h treatment
Description: (§2) Total RNA was extracted from HaCaT and primary human keratinocytes using PureLink™ RNA mini kit (Thermo Fisher Scientific, US). First-strand cDNA was synthesised from 600 ng of total RNA using SuperScript™ II Reverse Transcriptase and Oligo(dT)12-18 (Thermo Fisher Scientific, US) according to the manufacturer's instructions. Quantitative PCR (qPCR) was performed with iTaq Universal SYBR Green Supermix (Bio-Rad, US) on a CFX96 Touch Real-Time PCR Detection System (Bio-Rad, US) for 40 cycles. PCR reaction (20 μL): 3 μL cDNA, 1 μL primer mix (10 μM), 6 μL DEPC-treated water and 10 μL mastermix. […] GAPDH was used as a housekeeping gene for normalization. Fold changes of gene expressions with c-fos and c-Jun were calculated using the 2^−ΔΔCT method.

[11] = system: c-Jun; assay: Gene expression analysis (qPCR) of c-Jun in HaCaT cells; type: cell-based, human; conditions: 2 h treatment
Description: as §2

[12] = system: C57BL/6 mice; assay: Full-thickness splinted excisional wound healing in C57BL/6 mice; type: in vivo, mouse; conditions: topical, three consecutive days; bleogen pB1 10 nmol/wound, EGF 1 nmol/wound; vs saline
Description: C57BL/6 mice were obtained from Vital Rital Laboratories (Beijing, China). […] All experiments were approved and performed in accordance with the institutional guidelines of the Experimental Animal Center of the Chinese Academy of Medical Science (Beijing, China).
as §1
Full-thickness 5 mm splinted excisional wounding of mice was performed on C57BL/6 mice as described above.

[13] = system: pepsin, trypsin, pronase, human neutrophil elastase; assay: Proteolytic stability against a panel of proteases; conditions: disulfide bridges reduced and S-alkylated by iodoacetamide
Description: as §3, §4

Sequence of EGFR (P00533 25-645 limits assumed): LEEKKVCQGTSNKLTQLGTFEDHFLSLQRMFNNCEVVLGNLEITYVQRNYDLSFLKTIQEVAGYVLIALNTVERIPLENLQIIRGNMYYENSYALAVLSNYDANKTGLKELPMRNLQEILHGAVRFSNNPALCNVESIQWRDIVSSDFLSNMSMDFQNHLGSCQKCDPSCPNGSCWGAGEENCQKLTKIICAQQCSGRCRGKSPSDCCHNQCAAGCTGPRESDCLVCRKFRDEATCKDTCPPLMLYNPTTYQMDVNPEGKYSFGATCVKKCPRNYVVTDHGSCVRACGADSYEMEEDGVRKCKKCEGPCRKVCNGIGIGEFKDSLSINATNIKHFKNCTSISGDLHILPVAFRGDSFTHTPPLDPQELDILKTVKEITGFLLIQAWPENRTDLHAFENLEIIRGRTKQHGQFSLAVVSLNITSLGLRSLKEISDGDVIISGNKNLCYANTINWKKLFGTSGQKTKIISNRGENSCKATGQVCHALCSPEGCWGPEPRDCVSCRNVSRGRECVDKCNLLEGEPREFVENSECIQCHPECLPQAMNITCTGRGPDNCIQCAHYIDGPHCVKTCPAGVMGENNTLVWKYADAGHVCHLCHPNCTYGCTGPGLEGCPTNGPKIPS

CC[C@H](C)[C@@H]1NC(=O)[C@H](CCC(=O)O)NC(=O)[C@H]([C@@H](C)O)NC(=O)[C@@H]2CSSC[C@@H]3NC(=O)[C@H](Cc4ccccc4)NC(=O)[C@H](CC(N)=O)NC(=O)[C@H](CO)NC(=O)[C@H](CSSC[C@H](NC(=O)[C@@H](N)CCC(N)=O)C(=O)N[C@@H](CCCCN)C(=O)N4CCC[C@H]4C(=O)N[C@@H](CC(N)=O)C(=O)NCC(=O)N[C@@H](C)C(=O)N[C@@H](CCCCN)C(=O)N2)NC(=O)[C@H](CSSC[C@@H](C(=O)N[C@@H](C)C(=O)N[C@@H](CC(N)=O)C(=O)N[C@@H](CCCNC(=N)N)C(=O)O)NC(=O)[C@H]([C@@H](C)O)NC(=O)CNC(=O)[C@H](CO)NC(=O)[C@@H](CCCCN)NC(=O)[C@H](CCC(N)=O)NC(=O)CNC(=O)[C@H](C)NC(=O)[C@H](Cc2ccc(O)cc2)NC(=O)[C@H](CCCNC(=N)N)NC(=O)[C@H](CC(C)C)NC3=O)NC(=O)[C@@H]2CCCN2C(=O)[C@@H]2CCCN2C(=O)[C@H]([C@@H](C)CC)NC(=O)[C@H](CO)NC1=O [[K29k]pB1]
wound closure compared with EGF and bleogen pB1 in STZ-diabetic mice [1]: at a similar rate as EGF, and much faster than bleogen pB1 | wound healing rate vs vehicle control in STZ-induced diabetic mice [1]: healed at a significantly faster rate starting from day 4 post-injury | wound closure compared with EGF and bleogen pB1 in STZ-diabetic mice ([1]; listed as K29k pB1): comparable | half-life at 0.1 M [2]: > 8.33 h | half-life at 0.1 M [3]: > 8.33 h | EGFR affinity / EGF-like biological activity compared with bleogen pB1 (EGFR displacement) [4]: higher affinity than bleogen pB1 | potency relative to bleogen pB1 (fold more potent) [4]: approximately 60 fold | IC50 ([4]; TR-FRET, mean±S.D., three independent experiments, read-out: IC50, displacement of biotin-EGF from EGFR): 27 ± 0.05 nM | EGFR affinity / EGF-like biological activity compared with bleogen pB1 (EGFR displacement) ([4]; listed as K29k pB1): increased EGF-like biological activities | potency relative to bleogen pB1 (fold more potent) ([4]; listed as K29k pB1): 60 fold | half-life at 0.1 M [5]: > 8.33 h | mitogenic effect compared with bleogen pB1 ([6]; 72 h): more mitogenic than bleogen pB1 | EGFR dependence of proliferative/mitogenic effect [6]: EGFR-dependent

EGF: epidermal growth factor, SEQ ID NO:10, positive control
wound healing rate vs vehicle control in STZ-induced diabetic mice [1]: healed at a significantly faster rate starting from day 4 post-injury | endothelial cell tube formation [7]: accelerate | HaCaT cell migration [8]: accelerate | time of incisor eruption in newborn mice [9]: 100 h | mRNA expression of c-fos [10]: significantly upregulate | mRNA expression of c-Jun [11]: significantly upregulate | wound healing, full-thickness excision wound model in C57 mice [12]: accelerated wound healing from day 3 to day 11

CC[C@H](C)[C@H](NC(=O)[C@H](CCC(=O)O)NC(=O)[C@@H](NC(=O)[C@H](CSCC(N)=O)NC(=O)[C@H](CCCCN)NC(=O)[C@H](C)NC(=O)CNC(=O)[C@H](CC(N)=O)NC(=O)[C@@H]1CCCN1C(=O)[C@H](CCCCN)NC(=O)[C@H](CSCC(N)=O)NC(=O)[C@@H](N)CCC(N)=O)[C@@H](C)O)C(=O)N[C@@H](CO)C(=O)N[C@H](C(=O)N1CCC[C@H]1C(=O)N1CCC[C@H]1C(=O)N[C@@H](CSCC(N)=O)C(=O)N[C@@H](CSCC(N)=O)C(=O)N[C@@H](CO)C(=O)N[C@@H](CC(N)=O)C(=O)N[C@@H](Cc1ccccc1)C(=O)N[C@@H](CSCC(N)=O)C(=O)N[C@@H](CC(C)C)C(=O)N[C@@H](CCCNC(=N)N)C(=O)N[C@@H](Cc1ccc(O)cc1)C(=O)N[C@@H](C)C(=O)NCC(=O)N[C@@H](CCC(N)=O)C(=O)N[C@@H](CCCCN)C(=O)N[C@@H](CO)C(=O)NCC(=O)N[C@H](C(=O)N[C@@H](CSCC(N)=O)C(=O)N[C@@H](C)C(=O)N[C@@H](CC(N)=O)C(=O)N[C@@H](CCCNC(=N)N)C(=O)O)[C@@H](C)O)[C@@H](C)CC [S-alkylated bleogen pB1, reference compound]
degradation by proteases (time) [13]: within a couple of minutes

N#CC(=C(/N)Sc1ccccc1N)/C(C#N)=C(\N)Sc1ccccc1N [U0126, reference compound]
effect of co-incubation on bleogen pB1-induced HaCaT cell proliferation [6]: substantially inhibited

CC[C@H](C)[C@@H]1NC(=O)[C@H](CCC(=O)O)NC(=O)[C@H]([C@@H](C)O)NC(=O)[C@@H]2CSSC[C@@H]3NC(=O)[C@H](Cc4ccccc4)NC(=O)[C@H](CC(N)=O)NC(=O)[C@H](CO)NC(=O)[C@H](CSSC[C@H](NC(=O)[C@@H](N)CCC(N)=O)C(=O)N[C@@H](CCCCN)C(=O)N4CCC[C@H]4C(=O)N[C@@H](CC(N)=O)C(=O)NCC(=O)N[C@@H](C)C(=O)N[C@@H](CCCCN)C(=O)N2)NC(=O)[C@H](CSSC[C@@H](C(=O)N[C@@H](C)C(=O)N[C@@H](CC(N)=O)C(=O)N[C@@H](CCCNC(=N)N)C(=O)O)NC(=O)[C@H]([C@@H](C)O)NC(=O)CNC(=O)[C@H](CO)NC(=O)[C@H](CCCCN)NC(=O)[C@H](CCC(N)=O)NC(=O)CNC(=O)[C@H](C)NC(=O)[C@@H](Cc2ccc(O)cc2)NC(=O)[C@H](CCCNC(=N)N)NC(=O)[C@H](CC(C)C)NC3=O)NC(=O)[C@@H]2CCCN2C(=O)[C@@H]2CCCN2C(=O)[C@H]([C@@H](C)CC)NC(=O)[C@H](CO)NC1=O [[Y25y]pB1]
EGFR affinity / EGF-like biological activity compared with bleogen pB1 (EGFR displacement) [4]: higher affinity than bleogen pB1 | IC50 [4]: 580 ± 0.089 nM | EGFR affinity / EGF-like biological activity compared with bleogen pB1 (EGFR displacement) ([4]; listed as Y25y pB1): increased EGF-like biological activities | mitogenic effect compared with bleogen pB1 ([6]; 72 h): more mitogenic than bleogen pB1 | EGFR dependence of proliferative/mitogenic effect [6]: EGFR-dependent

COc1cc2ncnc(Nc3cccc(Cl)c3)c2cc1OC [AG1478, reference compound]
effect of co-incubation on bleogen pB1-induced HaCaT cell proliferation ([6]; serum-free medium, 72 h): substantially inhibited

NCESGTSCIPGAQHNCCSGVCVPIVTIFYGVCY (listed as Achyranthes bidentata) [aB1, reference compound]
HaCaT cell proliferation, concentration up to which not active ([6]; negative control): > 10 µM
